How the values were obtained:
[1] = biological target: HDAC1 (Homo sapiens (Human), UniProt Q13547); test: HDAC enzyme activity inhibition (in vitro), HDAC1 Fluorimetric Drug Discovery Assay Kit; assay type: biochemical; conditions: samples at 100, 1000 and 10000 nM; 37° C. 60 minutes; fluorescence Ex 390, Em 460
[2] = biological target: HDAC6 human recombinant (Homo sapiens (Human), UniProt Q9UBN7); test: HDAC enzyme activity inhibition (in vitro), HDAC6 assay; assay type: biochemical; conditions: samples at 0.1, 1, 10, 100 and 1000 nM; 37° C. 60 minutes; fluorescence Ex 390, Em 460
Sequence of HDAC6 human recombinant (Q9UBN7 whole entry): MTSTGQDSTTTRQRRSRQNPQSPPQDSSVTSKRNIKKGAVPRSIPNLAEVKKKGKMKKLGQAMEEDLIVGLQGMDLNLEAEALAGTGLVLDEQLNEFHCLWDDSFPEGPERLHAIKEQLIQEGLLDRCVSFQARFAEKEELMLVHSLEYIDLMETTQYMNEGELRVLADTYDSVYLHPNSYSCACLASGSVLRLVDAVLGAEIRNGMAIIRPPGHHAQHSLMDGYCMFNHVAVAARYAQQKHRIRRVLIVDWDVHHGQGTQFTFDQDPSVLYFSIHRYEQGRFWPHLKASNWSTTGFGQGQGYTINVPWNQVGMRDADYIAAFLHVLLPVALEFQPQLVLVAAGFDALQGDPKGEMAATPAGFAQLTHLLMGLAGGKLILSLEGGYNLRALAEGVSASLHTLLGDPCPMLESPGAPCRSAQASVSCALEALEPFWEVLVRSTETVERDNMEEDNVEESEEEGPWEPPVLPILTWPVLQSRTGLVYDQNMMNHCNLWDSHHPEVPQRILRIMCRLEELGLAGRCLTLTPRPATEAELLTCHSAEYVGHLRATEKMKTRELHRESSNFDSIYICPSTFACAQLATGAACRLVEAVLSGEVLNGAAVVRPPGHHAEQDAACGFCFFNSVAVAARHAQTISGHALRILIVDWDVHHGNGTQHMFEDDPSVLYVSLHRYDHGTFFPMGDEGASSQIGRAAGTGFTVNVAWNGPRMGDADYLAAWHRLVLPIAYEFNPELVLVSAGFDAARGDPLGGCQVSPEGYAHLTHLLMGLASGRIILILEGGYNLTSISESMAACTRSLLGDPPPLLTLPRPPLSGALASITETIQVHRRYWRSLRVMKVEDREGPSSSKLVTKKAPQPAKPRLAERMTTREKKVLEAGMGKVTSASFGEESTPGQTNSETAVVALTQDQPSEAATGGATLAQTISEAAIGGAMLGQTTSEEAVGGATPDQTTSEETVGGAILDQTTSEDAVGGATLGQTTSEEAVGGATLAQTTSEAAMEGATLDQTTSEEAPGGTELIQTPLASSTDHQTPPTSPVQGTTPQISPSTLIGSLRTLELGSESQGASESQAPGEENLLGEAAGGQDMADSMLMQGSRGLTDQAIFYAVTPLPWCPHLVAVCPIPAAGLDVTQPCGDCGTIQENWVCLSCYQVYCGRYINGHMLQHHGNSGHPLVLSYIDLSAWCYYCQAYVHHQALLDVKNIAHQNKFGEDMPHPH

Sequence of HDAC1 (Q13547 whole entry): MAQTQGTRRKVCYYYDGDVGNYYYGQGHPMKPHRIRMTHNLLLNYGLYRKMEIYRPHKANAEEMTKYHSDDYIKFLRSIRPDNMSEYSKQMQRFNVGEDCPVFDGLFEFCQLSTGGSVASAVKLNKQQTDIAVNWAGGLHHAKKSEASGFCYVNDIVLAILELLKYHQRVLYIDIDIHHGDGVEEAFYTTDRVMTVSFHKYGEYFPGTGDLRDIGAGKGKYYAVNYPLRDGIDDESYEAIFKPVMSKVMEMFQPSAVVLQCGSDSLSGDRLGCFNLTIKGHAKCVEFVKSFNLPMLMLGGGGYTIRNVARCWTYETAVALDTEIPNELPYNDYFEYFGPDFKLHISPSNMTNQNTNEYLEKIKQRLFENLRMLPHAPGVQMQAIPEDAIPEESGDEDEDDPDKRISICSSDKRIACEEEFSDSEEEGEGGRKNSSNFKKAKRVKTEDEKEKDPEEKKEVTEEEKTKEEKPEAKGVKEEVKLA

| SMILES | IC50 [1] | IC50 [2] |
| --- | --- | --- |
| CC1(C)C(=O)N(Cc2ccc(-c3nnc(C(F)F)o3)cn2)C(=O)c2ccc(C3CCN(C4CC5(COC5)C4)CC3)cc21 [Compound 63, 6-(1-(2-oxaspiro[3.3]heptane-6-yl)piperidine-4-yl)-2-((5-(5-(difluoromethyl)-1,3,4-oxadiazole-2-yl)pyridine-2-yl)methyl)-4,4-dimethylisoquinoline-1,3(2H,4H)-dione] | > 10000 nM | 33 nM |
| CCC1(CC)C(=O)N(Cc2ccc(-c3nnc(C(F)F)o3)cn2)C(=O)c2ccc(N3CCN(C(C)=O)CC3)cc21 [Compound 136, 6-(4-acetylpiperazine-1-yl)-2-((5-(5-(difluoromethyl)-1,3,4-oxadiazole-2-yl)pyridine-2-yl)methyl)-4,4-diethylisoquinoline-1,3(2H,4H)-dione] | > 10000 nM | 55 nM |
| COc1ccc(Cn2c(=O)n(Cc3ccc(-c4nnc(C(F)F)o4)cn3)c(=O)c3cc(F)ccc32)cc1 [Compound 66, 3-((5-(5-(difluoromethyl)-1,3,4-oxadiazole-2-yl)pyridine-2-yl)methyl)-6-fluoro-1-(4-methoxybenzyl)quinazoline-2,4(1H,3H)-dione] | > 10000 nM | 216 nM |
| Cn1c(=O)n(Cc2ccc(-c3nnc(C(F)F)o3)cn2)c(=O)c2ccc(Br)cc21 [Compound 97, 7-bromo-3-((5-(5-(difluoromethyl)-1,3,4-oxadiazole-2-yl)pyridine-2-yl)methyl)-1-methylquinazoline-2,4(1H,3H)-dione] | > 10000 nM | 61 nM |
| CC(C)N1CCC(c2ccc3c(c2)C(=O)N(Cc2ccc(-c4nnc(C(F)F)o4)cn2)C(=O)C3(C)C)CC1 [Compound 69, 2-((5-(5-(difluoromethyl)-1,3,4-oxadiazole-2-yl)pyridine-2-yl)methyl)-7-(1-isopropylpiperidine-4-yl)-4,4-dimethylisoquinoline-1,3(2H,4H)-dione] | > 10000 nM | 19 nM |
| COCCn1c(=O)n(Cc2ccc(-c3nnc(C(F)F)o3)cn2)c(=O)c2ccccc21 [Compound 17, 3-((5-(5-(difluoromethyl)-1,3,4-oxadiazole-2-yl)pyridine-2-yl)methyl)-1-(2-methoxyethyl)quinazoline-2,4(1H,3H)-dione] | > 10000 nM | 165 nM |
| CC1(C)C(=O)N(Cc2ccc(-c3nnc(C(F)F)o3)cc2F)C(=O)c2ccccc21 [Compound 7, 2-(4-(5-(difluoromethyl)-1,3,4-oxadiazole-2-yl)-2-fluorobenzyl)-4,4-dimethylisoquinoline-1,3(2H,4H)-dione] | > 10000 nM | 145 nM |
| CC1(C)C(=O)N(Cc2ccc(-c3nnc(C(F)F)o3)cn2)C(=O)c2ccc(N3CCN(c4ncccn4)CC3)cc21 [Compound 50, 2-((5-(5-(difluoromethyl)-1,3,4-oxadiazole-2-yl)pyridine-2-yl)methyl)-4,4-dimethyl-6-(4-(pyrimidine-2-yl)piperazine-1-yl)isoquinoline-1,3(2H,4H)-dione] | > 10000 nM | 52 nM |
| Cn1c(=O)n(Cc2ccc(-c3nnc(C(F)F)o3)cn2)c(=O)c2ccc(-c3ccccc3F)cc21 [Compound 99, 3-((5-(5-(difluoromethyl)-1,3,4-oxadiazole-2-yl)pyridine-2-yl)methyl)-7-(2-fluorophenyl)-1-methylquinazoline-2,4(1H,3H)-dione] | > 10000 nM | 149 nM |
| CN1CCC(c2ccc3c(c2)C(=O)N(Cc2ccc(-c4nnc(C(F)F)o4)cn2)C(=O)C3(C)C)CC1 [Compound 54, 2-((5-(5-(difluoromethyl)-1,3,4-oxadiazole-2-yl)pyridine-2-yl)methyl)-4,4-dimethyl-7-(1-methylpiperidine-4-yl)isoquinoline-1,3(2H,4H)-dione] | > 10000 nM | 42 nM |
| CC1(C)C(=O)N(Cc2ccc(-c3nnc(C(F)F)o3)cn2)C(=O)c2c(-c3ccncc3)cccc21 [Compound 84, 2-((5-(5-(difluoromethyl)-1,3,4-oxadiazole-2-yl)pyridine-2-yl)methyl)-4,4-dimethyl-8-(pyridine-4-yl)isoquinoline-1,3(2H,4H)-dione] | > 10000 nM | 79 nM |
| CN1CC=C(c2ccc3c(c2)C(C)(C)C(=O)N(Cc2ccc(-c4nnc(C(F)F)o4)cn2)C3=O)CC1 [Compound 42, 2-((5-(5-(difluoromethyl)-1,3,4-oxadiazole-2-yl)pyridine-2-yl)methyl)-4,4-dimethyl-6-(1-methyl-1,2,3,6-tetrahydropyridine-4-yl)isoquinoline-1,3(2H,4H)-dione] | > 10000 nM | 35 nM |
| CC(C)(C)OC(=O)N1CCN(c2ccc3c(c2)C(C)(C)C(=O)N(Cc2ccc(-c4nnc(C(F)F)o4)cn2)C3=O)CC1 [Compound 25, tert-butyl 4-(2-((5-(5-(difluoromethyl)-1,3,4-oxadiazole-2-yl)pyridine-2-yl)methyl)-4,4-dimethyl-1,3-dioxo-1,2,3,4-tetrahydroisoquinoline-6-yl)piperazine-1-carboxylate] | > 10000 nM | 158 nM |
| CC(C)(C)OC(=O)N1CC=C(c2ccc3c(c2)C(=O)N(Cc2ccc(-c4nnc(C(F)F)o4)cn2)C(=O)C3(C)C)CC1 [Compound 53, tert-butyl 4-(2-((5-(5-(difluoromethyl)-1,3,4-oxadiazole-2-yl)pyridine-2-yl)methyl)-4,4-dimethyl-1,3-dioxo-1,2,3,4-tetrahydroisoquinoline-7-yl)-3,6-dihydropyridine-1(2H)-carboxylate] | > 10000 nM | 427 nM |
| CC1(C)C(=O)N(Cc2ccc(-c3nnc(C(F)F)o3)cn2)C(=O)c2cc(C3CCN(S(C)(=O)=O)CC3)ccc21 [Compound 128, 2-((5-(5-(difluoromethyl)-1,3,4-oxadiazole-2-yl)pyridine-2-yl)methyl)-4,4-dimethyl-7-(1-(methylsulfonyl)piperidine-4-yl)isoquinoline-1,3(2H,4H)-dione] | > 10000 nM | 70 nM |
| CN(C)[C@H]1CCN(c2ccc3c(c2)C(C)(C)C(=O)N(Cc2ccc(-c4nnc(C(F)F)o4)cn2)C3=O)C1 [Compound 31, (S)-2-((5-(5-(difluoromethyl)-1,3,4-oxadiazole-2-yl)pyridine-2-yl)methyl)-6-(3-(dimethylamino)pyrrolidine-1-yl)-4,4-dimethylisoquinoline-1,3(2H,4H)-dione] | > 10000 nM | 29 nM |
| CC1(C)C(=O)N(Cc2ccc(-c3nnc(C(F)F)o3)cn2)C(=O)c2ccc(C3CCN(CC4CCOCC4)CC3)cc21 [Compound 62, 2-((5-(5-(difluoromethyl)-1,3,4-oxadiazole-2-yl)pyridine-2-yl)methyl)-4,4-dimethyl-6-(1-((tetrahydro-2H-pyran-4-yl)methyl)piperidine-4-yl)isoquinoline-1,3(2H,4H)-dione] | > 10000 nM | 61 nM |
| Cn1c(=O)n(Cc2ccc(-c3nnc(C(F)F)o3)cn2)c(=O)c2cc(Br)ccc21 [Compound 86, 6-bromo-3-((5-(5-(difluoromethyl)-1,3,4-oxadiazole-2-yl)pyridine-2-yl)methyl)-1-methylquinazoline-2,4(1H,3H)-dione] | > 10000 nM | 40 nM |
| CC(C)CN1CCN(c2ccc3c(c2)C(=O)N(Cc2ccc(-c4nnc(C(F)F)o4)cn2)C(=O)C3(C)C)CC1 [Compound 131, 2-((5-(5-(difluoromethyl)-1,3,4-oxadiazole-2-yl)pyridine-2-yl)methyl)-7-(4-isobutylpiperazine-1-yl)-4,4-dimethylisoquinoline-1,3(2H,4H)-dione] | > 10000 nM | 62 nM |
| CC1(C)C(=O)N(Cc2ccc(-c3nnc(C(F)F)o3)cn2)C(=O)c2cc(-c3ccncc3)ccc21 [Compound 110, 2-((5-(5-(difluoromethyl)-1,3,4-oxadiazole-2-yl)pyridine-2-yl)methyl)-4,4-dimethyl-7-(pyridine-4-yl)isoquinoline-1,3(2H,4H)-dione] | > 10000 nM | 15 nM |
| CN(C)CCCn1c(=O)n(Cc2ccc(-c3nnc(C(F)F)o3)cn2)c(=O)c2ccccc21 [Compound 19, 3-((5-(5-(difluoromethyl)-1,3,4-oxadiazole-2-yl)pyridine-2-yl)methyl)-1-(3-(dimethylamino)propyl)quinazoline-2,4(1H,3H)-dione] | > 10000 nM | 249 nM |
| COCCn1c(=O)c2ccccc2n(Cc2ccc(-c3nnc(C(F)F)o3)cn2)c1=O [Compound 76, 1-((5-(5-(difluoromethyl)-1,3,4-oxadiazole-2-yl)pyridine-2-yl)methyl)-3-(2-methoxyethyl)quinazoline-2,4(1H,3H)-dione] | > 10000 nM | 79 nM |
| CCN1CCN(c2ccc3c(c2)C2(CCC2)C(=O)N(Cc2ccc(-c4nnc(C(F)F)o4)cn2)C3=O)CC1 [Compound 117, 2′-((5-(5-(difluoromethyl)-1,3,4-oxadiazole-2-yl)pyridine-2-yl)methyl)-6′-(4-ethylpiperazine-1-yl)-1′H-spiro[cyclobutane-1,4′-isoquinoline]-1′,3′(2′H)-dione] | > 10000 nM | 22 nM |
| CC(=O)N1CCN(c2ccc3c(c2)C(C)(C)C(=O)N(Cc2ccc(-c4nnc(C(F)F)o4)cn2)C3=O)CC12CC2 [Compound 81, 6-(4-acetyl-4,7-diazaspiro[2.5]octane-7-yl)-2-((5-(5-(difluoromethyl)-1,3,4-oxadiazole-2-yl)pyridine-2-yl)methyl)-4,4-dimethylisoquinoline-1,3(2H,4H)-dione] | > 10000 nM | 11 nM |
| CNC(=O)C1CCN(c2ccc3c(c2)C(C)(C)C(=O)N(Cc2ccc(-c4nnc(C(F)F)o4)cn2)C3=O)CC1 [Compound 56, 1-(2-((5-(5-(difluoromethyl)-1,3,4-oxadiazole-2-yl)pyridine-2-yl)methyl)-4,4-dimethyl-1,3-dioxo-1,2,3,4-tetrahydroisoquinoline-6-yl)-N-methylpiperidine-4-carboxamide] | > 10000 nM | 46 nM |
